≈ marks a conversion by molar mass, not a printed value. Like-named read-outs stand apart in the source and are kept apart here.
Assays:
S. aureus ATCC 25923 [1] = assay: Antibacterial activity, post-exposure on preformed 18-h-old biofilms; type: cell-based, Staphylococcus aureus; conditions: ± SD; for inhibition at 25 µM / inhibition at 50 µM / inhibition at 100 µM / inhibition at 200 µM: Staphylococcus aureus; for inhibition at 25 µM: ATCC25923, 25 µM; for inhibition at 50 µM: ATCC25923, 50 µM; for inhibition at 100 µM: ATCC25923, 100 µM; for inhibition at 200 µM: ATCC25923, 200 µM
Outline: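 Compounds were applied to preformed 18-h biofilms after medium change and left 24 h. Read-outs: planktonic OD plus resazurin fluorescence (20 μM), biofilm metabolic activity by resazurin 30 min at 37 °C, then biomass by crystal violet absorbance at 595 nm after ethanol fixation.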

S. aureus ATCC 25923 [2] = assay: Antibacterial activity, pre-exposure (planktonic cells and biofilm formation); type: cell-based, Staphylococcus aureus; conditions: for MIC / inhibition at 5 µM / inhibition at 10 µM / inhibition at 15 µM / inhibition at 25 µM: Staphylococcus aureus, ATCC25923; for inhibition at 5 µM / inhibition at 10 µM / inhibition at 15 µM / inhibition at 25 µM / Average inhibition %, biofilms viability / Average inhibition %, planktonic cells viability: pre-exposure, ± SD
Outline: (§1)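 Compounds are diluted in DMSO and plated, then bacteria are added to test prevention of growth and biofilm formation. After 18 h at 37 °C with shaking, planktonic OD and resazurin fluorescence are measured. Washed biofilms receive resazurin (30 min S. aureus, 60 min A. baumannii, 90 min P. aeruginosa, 37 °C), then crystal violet.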

P. aeruginosa ATCC 9027 = assay: Antibacterial activity, pre-exposure; type: cell-based, Pseudomonas aeruginosa; conditions: for Average inhibition %, biofilms viability / Average inhibition %, planktonic cells viability / inhibition at 50 µM / inhibition at 100 µM / inhibition at 150 µM / inhibition at 200 µM: P. aeruginosa ATCC 9027, pre-exposure, ± SD; for inhibition at 50 µM / inhibition at 100 µM / inhibition at 150 µM / inhibition at 200 µM: Pseudomonas aeruginosa, ATCC9027
Outline: as §1

A. baumannii NCTC 13423 = assay: Antibacterial activity, pre-exposure; type: cell-based, Acinetobacter baumannii; conditions: for Average inhibition %, biofilms viability / Average inhibition %, planktonic cells viability / inhibition at 10 µM / inhibition at 15 µM / inhibition at 25 µM / inhibition at 50 µM: A. baumannii NCTC 13423, pre-exposure, ± SD; for inhibition at 10 µM / inhibition at 15 µM / inhibition at 25 µM / inhibition at 50 µM: Acinetobacter baumannii, NCTC13423
Outline: as §1

[3] = read-out: Average inhibition %, biofilms biomass
[4] = read-out: Average inhibition %, planktonic cells turbidity
[5] = 10 µM, read-out: Average inhibition %, biofilms biomass
[6] = 10 µM, read-out: Average inhibition %, planktonic cells turbidity
[7] = 15 µM, read-out: Average inhibition %, biofilms biomass
[8] = 15 µM, read-out: Average inhibition %, planktonic cells turbidity
[9] = 25 µM, read-out: Average inhibition %, biofilms biomass
[10] = 25 µM, read-out: Average inhibition %, planktonic cells turbidity
[11] = 50 µM, read-out: Average inhibition %, biofilms biomass
[12] = 50 µM, read-out: Average inhibition %, planktonic cells turbidity

## CCCCCc1ccc(-c2ccc(CCC(N)(CO)CO)cc2)cc1 [Compound 15, 2-Amino-2-[2-(4′-pentyl-[1,1′-biphenyl]-4-yl)ethyl]propane-1,3-diol]
S. aureus ATCC 25923 [1]; 25 µM
  Average inhibition %, biofilms viability: 19 ± 6.6%
  Average inhibition %, planktonic cells viability: 3.6 ± 6.3%
S. aureus ATCC 25923 [1]; 50 µM
  Average inhibition %, biofilms viability: 30.8 ± 8.5%
  Average inhibition %, planktonic cells viability: 1.2 ± 2.1%
S. aureus ATCC 25923 [1]; 100 µM
  Average inhibition %, biofilms viability: 31.9 ± 6.2%
  Average inhibition %, planktonic cells viability: 3.8 ± 6.6%
S. aureus ATCC 25923 [1]; 200 µM
  Average inhibition %, biofilms viability: 38.7 ± 13.3%
  Average inhibition %, planktonic cells viability: 29.1 ± 25.2%
S. aureus ATCC 25923 [1]; [3]
  inhibition at 25 µM: 34.9 ± 12.7%
  inhibition at 50 µM: 44.9 ± 6.2%
  inhibition at 100 µM: 43.6 ± 7.8%
  inhibition at 200 µM: 45.5 ± 18.5%
S. aureus ATCC 25923 [1]; [4]
  inhibition at 25 µM: 16.8 ± 10%
  inhibition at 50 µM: 14.7 ± 13.4%
  inhibition at 100 µM: 17.9 ± 1.1%
  inhibition at 200 µM: 47.4 ± 13.9%
S. aureus ATCC 25923 [2]; 50 μM, S. aureus
  Initial screening result (active = at least 60% inhibition of planktonic cells and biofilm formation): active
S. aureus ATCC 25923 [2]; lowest concentration with no visible growth (>90% inhibition of turbidity and viability of planktonic cells), 18 h, read-out: MIC S. aureus ATCC 25923
  MIC: 25 to 100 µM (≈ 8.54 to 34.1 µg/mL)
S. aureus ATCC 25923 [2]; 5 µM, read-out: Average inhibition %, biofilms biomass
  inhibition at 5 µM: 44.4 ± 15%
S. aureus ATCC 25923 [2]; 5 µM, read-out: Average inhibition %, planktonic cells turbidity
  inhibition at 5 µM: 44.9 ± 12.3%
S. aureus ATCC 25923 [2]; [5]
  inhibition at 10 µM: 68.5 ± 20.6%
S. aureus ATCC 25923 [2]; [6]
  inhibition at 10 µM: 70.3 ± 19.8%
S. aureus ATCC 25923 [2]; [7]
  inhibition at 15 µM: 75.8 ± 18.7%
S. aureus ATCC 25923 [2]; [8]
  inhibition at 15 µM: 72.5 ± 23.2%
S. aureus ATCC 25923 [2]; [9]
  inhibition at 25 µM: 70.7 ± 26.8%
S. aureus ATCC 25923 [2]; [10]
  inhibition at 25 µM: 76.5 ± 19.4%
S. aureus ATCC 25923 [2]; read-out: MIC (S. aureus)
  MIC: 25 to 100 µM (≈ 8.54 to 34.1 µg/mL)
S. aureus ATCC 25923 [2]; 5 µM
  Average inhibition %, biofilms viability: 42.5 ± 7.6%
  Average inhibition %, planktonic cells viability: 2.6 ± 4.5%
S. aureus ATCC 25923 [2]; 10 µM
  Average inhibition %, biofilms viability: 71.3 ± 19.4%
  Average inhibition %, planktonic cells viability: 50.9 ± 46%
S. aureus ATCC 25923 [2]; 15 µM
  Average inhibition %, biofilms viability: 70.4 ± 24.5%
  Average inhibition %, planktonic cells viability: 33.2 ± 57.6%
S. aureus ATCC 25923 [2]; 25 µM
  Average inhibition %, biofilms viability: 79.3 ± 18.7%
  Average inhibition %, planktonic cells viability: 33.1 ± 57.3%
P. aeruginosa ATCC 9027; 50 µM
  Average inhibition %, biofilms viability: 0 ± 0%
  Average inhibition %, planktonic cells viability: 22.3 ± 2%
P. aeruginosa ATCC 9027; 100 µM
  Average inhibition %, biofilms viability: 0 ± 0%
  Average inhibition %, planktonic cells viability: 12 ± 14%
P. aeruginosa ATCC 9027; 150 µM
  Average inhibition %, biofilms viability: 0.5 ± 0.8%
  Average inhibition %, planktonic cells viability: 5.5 ± 6.3%
P. aeruginosa ATCC 9027; 200 µM
  Average inhibition %, biofilms viability: 0 ± 0%
  Average inhibition %, planktonic cells viability: 7.2 ± 6.3%
P. aeruginosa ATCC 9027; [11]
  inhibition at 50 µM: 2.2 ± 2.2%
P. aeruginosa ATCC 9027; [12]
  inhibition at 50 µM: 12.6 ± 9.1%
P. aeruginosa ATCC 9027; 100 µM, read-out: Average inhibition %, biofilms biomass
  inhibition at 100 µM: 3.7 ± 3%
P. aeruginosa ATCC 9027; 100 µM, read-out: Average inhibition %, planktonic cells turbidity
  inhibition at 100 µM: 11.3 ± 12.7%
P. aeruginosa ATCC 9027; 150 µM, read-out: Average inhibition %, biofilms biomass
  inhibition at 150 µM: 4.4 ± 1.9%
P. aeruginosa ATCC 9027; 150 µM, read-out: Average inhibition %, planktonic cells turbidity
  inhibition at 150 µM: 15.7 ± 13.7%
P. aeruginosa ATCC 9027; 200 µM, read-out: Average inhibition %, biofilms biomass
  inhibition at 200 µM: 12 ± 10.7%
P. aeruginosa ATCC 9027; 200 µM, read-out: Average inhibition %, planktonic cells turbidity
  inhibition at 200 µM: 13.7 ± 14.3%
P. aeruginosa ATCC 9027; pre-exposure, Inactive = no activity up to 200 μM, > = some inhibition but no MIC reached
  MIC P. aeruginosa ATCC 9027: Inactive
A. baumannii NCTC 13423; 10 µM
  Average inhibition %, biofilms viability: 0 ± 0%
  Average inhibition %, planktonic cells viability: 11 ± 1.5%
A. baumannii NCTC 13423; 15 µM
  Average inhibition %, biofilms viability: 1 ± 1.5%
  Average inhibition %, planktonic cells viability: 8.7 ± 2.5%
A. baumannii NCTC 13423; 25 µM
  Average inhibition %, biofilms viability: 2.8 ± 2.6%
  Average inhibition %, planktonic cells viability: 7.8 ± 6.9%
A. baumannii NCTC 13423; 50 µM
  Average inhibition %, biofilms viability: 7.1 ± 0.8%
  Average inhibition %, planktonic cells viability: 0 ± 0%
A. baumannii NCTC 13423; [5]
  inhibition at 10 µM: 0%
A. baumannii NCTC 13423; [6]
  inhibition at 10 µM: 0%
A. baumannii NCTC 13423; [7]
  inhibition at 15 µM: 0.8 ± 1.4%
A. baumannii NCTC 13423; [8]
  inhibition at 15 µM: 0%
A. baumannii NCTC 13423; [9]
  inhibition at 25 µM: 0%
A. baumannii NCTC 13423; [10]
  inhibition at 25 µM: 0%
A. baumannii NCTC 13423; [11]
  inhibition at 50 µM: 4.8 ± 4.9%
A. baumannii NCTC 13423; [12]
  inhibition at 50 µM: 0%
A. baumannii NCTC 13423; pre-exposure, Inactive = no activity up to 50 μM, > = some inhibition but no MIC reached
  MIC A. baumannii NCTC 13423: Inactive
